In patent US20250049795A1, “USE OF 5-(2-((5-(4-(DIMETHYLAMINO)PIPERIDIN-1-YL)PYRIDIN-2-YL)AMINO)-5-FLUOROPYRIMIDIN-4-YL)-N,4-DIMETHYLTHIAZOL-2-AMINE IN COMBINATION THERAPIES FOR CANCER” (Aucentra Therapeutics Pty Ltd, priority 2022, published 2025):
“Also recorded” adds a separate entry of the source.

Columns and labels:
CDK4/cyclin D1 = target: T1, CDK4/cyclin D1 (Homo sapiens, UniProt P11802); experiment: CDK inhibition, kinase assay (radiometric / ADP Glo); type: biochemical
T1 construct: purchased Eurofins Pharma Discovery or Reaction Biology Corporation (radiometric service)
Method: Serial dilutions of 1:3 were prepared for test compounds for 10 concentrations (from 10 μM to 0.5 nM). […] Positive and negative controls were performed in the presence and absence of CDK kinases, respectively. Half-maximal inhibition (IC50) values were calculated using a 4-parameter logistic non-linear regression model with Graphpad prism (Version 6.0). Apparent inhibition constants (Ki) values were calculated from Km (ATP) and IC50 values for the respective kinases.

[1] = tested on: other members of CDK family; experiment: Kinase profiling of CDK family; type: biochemical
Method: Eurofins Pharma Discovery or Reaction Biology Corporation Kinase Profiler services were used to measure inhibition of CDKs and other kinases by radiometric assay (RIA). Inhibition of CDK4/cyclin D1, CDK6/cyclin D3 and CDK9/cyclin T1 were also determined using ADP Glo Kinase assays (Promega Corporation, Madison WI, United States of America). Briefly, the kinase reaction for CDK4/cyclin D1 and CDK6/cyclin D3 was performed with kinase reaction buffer ([…] Tris base pH 7.5, 20 mM MgCl2, 0.4 mM DTT), 0.1 mg/ml BSA and RB-CTF substrate (retinoblastoma protein1 C-terminal fraction). For CDK9/cyclin T1, the kinase reaction was performed with standard assay buffer and Kinase Dilution Buffer and RBER-IRStide substrate. Serial dilutions of 1:3 were prepared for test compounds for 10 concentrations (from 10 μM to 0.5 nM). The kinase reactions were started by addition of ATP, incubated for 40 min at […] and then stopped by adding 10 μL of ADP Glo reagent. […] Luminescence was measured using an EnVision Multilabel plate reader (PerkinElmer, Buckinghamshire, United Kingdom). […] Half-maximal inhibition (IC50) values were calculated using a 4-parameter logistic non-linear regression model with Graphpad prism (Version 6.0). Apparent inhibition constants (Ki) values were calculated from Km (ATP) and IC50 values for the respective kinases.

[2] = tested on: CT26.WT colorectal cancer cells; experiment: In vivo anti-tumour activity in mice with a colorectal cancer syngeneic allograft; set-up: species or system mouse
Method: Murine triple-negative breast cancer EMT6 tumour cells (ATCC® CRL-2755™) and colorectal cancer CT26.WT cells (ATCC® CRL-2638™) were cultured and expanded in RPMI-1640 medium (Roswell Park Memorial Institute Medium-1640) with L-glutamine and sodium bicarbonate (Sigma-Aldrich, Macquarie Park, NSW, Australia) supplemented with 10% heat-inactivated foetal bovine serum (FBS). Cells were cultured in an incubator at 5% CO2 37° C.
(§1) CT26.WT colorectal cancer cells were harvested and re-suspended in a 1:1 mixture of Matrigel™ (#354234; Corning Life Sciences, Corning, NY, United States of America) and serum-free RPMI-1640 medium, and thereafter injected sub-cutaneously (sc) (7×10^5 cells in a volume of 100 μL) into the right flank of each female BALB/c mouse. After the tumour volume reached ˜100 mm^3, the mice were randomised into two groups (n=8/group) and given vehicle (1% CMC in water), compound 1 (150 mg/kg) once daily by oral administration (QD PO), Anti-PD1 (RMP1-14-derived mouse monoclonal antibody, Assay Matrix, Australia; […]) by intraperitoneal (ip) administration, or compound 1 plus anti-PD-1 antibody (FIG. 1).

[3] = tested on: T cell populations (CD3+, CD8+); experiment: Flow cytometry study of immune profiles in CT26.WT syngeneic mouse model; type: in vivo; settings: day 14 of dosing, 3 mice of each group
Excerpt: FIG. 2 provides further graphical results showing the in vivo anti-tumour efficacy of compound 1 in the CT26.WT syngeneic mouse model through activation of immunity. In the experiment, on day 14 of dosing, 3 mice of each group were sacrificed for flow cytometry study of immune profiles.
as §1, with “1). Compound 1 achieved significant tumour growth inhibition with a T/C=24% when used alone, and T/C=14% when used in the combination with the anti-PD-1 antibody, as measured on day 14 of dosing (FIG. 1).” for “1).”

T1 sequence (P11802 whole entry): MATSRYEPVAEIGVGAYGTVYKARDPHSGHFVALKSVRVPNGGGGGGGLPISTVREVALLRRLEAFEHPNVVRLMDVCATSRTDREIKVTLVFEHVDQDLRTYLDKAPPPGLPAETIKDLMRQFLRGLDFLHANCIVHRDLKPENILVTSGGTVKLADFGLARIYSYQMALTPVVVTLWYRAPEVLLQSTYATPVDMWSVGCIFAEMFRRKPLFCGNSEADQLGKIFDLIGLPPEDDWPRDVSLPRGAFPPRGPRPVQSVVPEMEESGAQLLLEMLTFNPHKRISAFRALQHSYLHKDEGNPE
T1 sequence (P24385 whole entry partner): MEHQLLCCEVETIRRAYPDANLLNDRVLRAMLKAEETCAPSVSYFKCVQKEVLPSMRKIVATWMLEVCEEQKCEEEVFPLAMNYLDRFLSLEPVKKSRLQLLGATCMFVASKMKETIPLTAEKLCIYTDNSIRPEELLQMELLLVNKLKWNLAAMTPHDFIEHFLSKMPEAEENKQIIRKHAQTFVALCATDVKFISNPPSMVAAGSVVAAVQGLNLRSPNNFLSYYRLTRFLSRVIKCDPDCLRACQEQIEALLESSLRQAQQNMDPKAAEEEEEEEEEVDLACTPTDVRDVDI

CNc1nc(C)c(-c2nc(Nc3ccc(N4CCC(N(C)C)CC4)cn3)ncc2F)s1 [Compound 1, 5-(2-((5-(4-(dimethylamino)piperidin-1-yl)pyridin-2-yl)amino)-5-fluoropyrimidin-4-yl)-N,4-dimethylthiazol-2-amine]
selectivity for CDK4 over CDK6 (CDK4/cyclin D1): 140 fold | activity against other members of CDK family [1]: no activity | extended survival of animals ([2]; BALB/c mice, CT26.WT allograft, compound 1 150 mg/kg QD PO, anti-PD1 ip, p<0.001): 60% | survival of the mice (in words) ([2]; BALB/c mice, CT26.WT allograft, p<0.001): significantly prolong the survival | tumor volume in treatment vs control ratio (T/C) ([2]; female BALB/c mice, sc CT26.WT allograft, day 14 of dosing, compound 1 150 mg/kg QD PO, Anti-PD1 150 g/mouse/wk ip): 24% | T cell populations (% CD3+ and % CD8+) in spleen, blood and tumour samples [3]: increased T cell populations; also recorded: increased level
